This passage reports EC50 results from US20240228488A1 (TAKEDA PHARMACEUTICAL COMPANY LIMITED, priority 2021, published 2024).

A word on the pEC50: it is −log10 of the EC50, conventionally taken in molar units.

pEC50: −log10 of the molar value.

For this assay, the target named is human activated kallikrein enzyme (Homo sapiens, UniProt P03952). The assay is described as follows: Plasma kallikrein inhibition, fluorogenic PFR-AMC substrate, 500 pM activated kallikrein format. To be noted: 500 pM activated kallikrein, 300 uM PFR-AMC, 30 min preincubation, 10 min reaction; read-out: Primary Dose Response Assay: Average EC50. The format is biochemical. A digest of the protocol: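 Enzyme (500 pM) was preincubated with inhibitor for 30 min at room temperature in 20 mM Tris pH 7.5, 1 mM EDTA, 150 mM NaCl, 0.1% PEG-400 and 0.1% Triton X-100. The reaction was started with 300 uM PFR-AMC, run 10 min, and fluorescence read at 460 nm (380 nm excitation). EC50 derived.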
human activated kallikrein enzyme, sequence (P03952 391-638 limits assumed): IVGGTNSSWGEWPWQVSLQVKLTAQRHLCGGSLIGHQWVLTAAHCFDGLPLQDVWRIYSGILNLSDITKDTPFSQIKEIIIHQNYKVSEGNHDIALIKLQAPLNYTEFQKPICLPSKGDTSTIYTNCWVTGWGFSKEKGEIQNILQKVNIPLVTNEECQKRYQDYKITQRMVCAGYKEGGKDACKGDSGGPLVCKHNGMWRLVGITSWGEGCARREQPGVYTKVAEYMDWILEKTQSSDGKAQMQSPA
human activated kallikrein enzyme, sequence (P03952 20-390 partner limits assumed): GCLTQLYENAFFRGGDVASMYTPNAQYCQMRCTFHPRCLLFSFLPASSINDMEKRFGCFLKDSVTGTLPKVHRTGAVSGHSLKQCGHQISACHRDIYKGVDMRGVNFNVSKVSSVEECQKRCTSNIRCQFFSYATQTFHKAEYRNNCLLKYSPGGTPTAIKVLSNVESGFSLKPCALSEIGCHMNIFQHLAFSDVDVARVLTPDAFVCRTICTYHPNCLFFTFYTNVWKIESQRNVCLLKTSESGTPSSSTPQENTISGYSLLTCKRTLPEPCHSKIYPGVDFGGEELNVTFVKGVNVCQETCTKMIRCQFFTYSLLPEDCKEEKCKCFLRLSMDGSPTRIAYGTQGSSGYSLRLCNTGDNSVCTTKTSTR
With `Cc1ccnc(C2CC2C(=O)Nc2cc(OCc3cn4cc(C5CC5)cc(N5CC(=O)N(C)C5=O)c4n3)c(C(F)(F)F)nn2)n1` (stereo not shown) [Example 666, N-(5-((6-cyclopropyl-8-(3-methyl-2,4-dioxoimidazolidin-1-yl)imidazo[1,2-a]pyridin-2-yl)methoxy)-6-(trifluoromethyl)pyridazin-3-yl)-2-(4-methylpyrimidin-2-yl)cyclopropane-1-carboxamide], the pEC50 is above 9.00.
Next, `Cc1ccnc([C@H]2C[C@@H]2C(=O)Nc2cc(CCc3cn4cc(C5CC5)cc(N5CC(=O)N(C)C5=O)c4n3)cnn2)n1` [Example 667, (1S,2S)—N-(5-(2-(6-cyclopropyl-8-(3-methyl-2,4-dioxoimidazolidin-1-yl)imidazo[1,2-a]pyridin-2-yl)ethyl)pyridazin-3-yl)-2-(4-methylpyrimidin-2-yl)cyclopropane-1-carboxamide]: above 9.00; `Cc1ccnc([C@H]2C[C@@H]2C(=O)Nc2nncc(N(C)Cc3cn4cc(C5CC5)cc(N5CC(=O)N(C)C5=O)c4n3)n2)n1` [Example 668, (1S,2S)—N-(5-(((6-cyclopropyl-8-(3-methyl-2,4-dioxoimidazolidin-1-yl)imidazo[1,2-a]pyridin-2-yl)methyl)(methyl)amino)-1,2,4-triazin-3-yl)-2-(4-methylpyrimidin-2-yl)cyclopropane-1-carboxamide]: above 9.00; `Cc1ccnc([C@H]2C[C@@H]2C(=O)Nc2ccc(C#N)c(OCc3cn4cc(C5CC5)cc(N5CC(=O)N(C)C5=O)c4n3)c2)n1` [Example 669, (1S,2S)—N-(4-cyano-3-((6-cyclopropyl-8-(3-methyl-2,4-dioxoimidazolidin-1-yl)imidazo[1,2-a]pyridin-2-yl)methoxy)phenyl)-2-(4-methylpyrimidin-2-yl)cyclopropane-1-carboxamide]: above 9.00.
In the case of `CNc1nnc(NC(=O)[C@H]2C[C@@H]2c2nccc(C)n2)cc1OCc1cn2cc(C3CC3)cc(N3CC(=O)N(C)C3=O)c2n1` [Example 670, (1S,2S)—N-(5-((6-cyclopropyl-8-(3-methyl-2,4-dioxoimidazolidin-1-yl)imidazo[1,2-a]pyridin-2-yl)methoxy)-6-(methylamino)pyridazin-3-yl)-2-(4-methylpyrimidin-2-yl)cyclopropane-1-carboxamide], the pEC50 is above 9.00.
Then `Cc1ccnc([C@H]2C[C@@H]2C(=O)Nc2nncc(OCc3cn4cc(C5CC5)cc(N5CC(=O)N(C)C5=O)c4n3)n2)n1` [Example 671, (1S,2S)—N-(5-((6-cyclopropyl-8-(3-methyl-2,4-dioxoimidazolidin-1-yl)imidazo[1,2-a]pyridin-2-yl)methoxy)-1,2,4-triazin-3-yl)-2-(4-methylpyrimidin-2-yl)cyclopropane-1-carboxamide], with above 9.00.
Then `Cc1ccnc([C@H]2C[C@@H]2C(=O)Nc2nncc(OC(C)c3cn4cc(C5CC5)cc(N5CC(=O)N(C)C5=O)c4n3)n2)n1` (stereo partly drawn) [Example 672, (1S,2S)—N-(5-(1-(6-cyclopropyl-8-(3-methyl-2,4-dioxoimidazolidin-1-yl)imidazo[1,2-a]pyridin-2-yl)ethoxy)-1,2,4-triazin-3-yl)-2-(4-methylpyrimidin-2-yl)cyclopropane-1-carboxamide], with above 9.00; and `CC(=O)OC(Cc1cn2cc(C3CC3)cc(N3CC(=O)N(C)C3=O)c2n1)c1cc(NC(=O)[C@H]2C[C@@H]2c2nccc(C)n2)nc(C)n1` (stereo partly drawn) [Example 673, 2-(6-cyclopropyl-8-(3-methyl-2,4-dioxoimidazolidin-1-yl)imidazo[1,2-a]pyridin-2-yl)-1-(2-methyl-6-((1S,2S)-2-(4-methylpyrimidin-2-yl)cyclopropane-1-carboxamido)pyrimidin-4-yl)ethyl acetate], with 6.00 to 7.00.
Next, `Cc1ccnc([C@H]2C[C@@H]2C(=O)Nc2cc(C(O)Cc3cn4cc(C5CC5)cc(N5CC(=O)N(C)C5=O)c4n3)nc(C)n2)n1` (stereo partly drawn) [Example 674, (1S,2S)—N-(6-(2-(6-cyclopropyl-8-(3-methyl-2,4-dioxoimidazolidin-1-yl)imidazo[1,2-a]pyridin-2-yl)-1-hydroxyethyl)-2-methylpyrimidin-4-yl)-2-(4-methylpyrimidin-2-yl)cyclopropane-1-carboxamide]: 7.00 to 8.00.
For the compound `Cc1ccnc([C@H]2C[C@@H]2C(=O)Nc2cc(F)cc(OCc3cn4cc(C5CC5)cc(N5CC(=O)N(C)C5=O)c4n3)n2)n1` [Example 675, (1S,2S)—N-(6-((6-cyclopropyl-8-(3-methyl-2,4-dioxoimidazolidin-1-yl)imidazo[1,2-a]pyridin-2-yl)methoxy)-4-fluoropyridin-2-yl)-2-(4-methylpyrimidin-2-yl)cyclopropane-1-carboxamide], the pEC50 is above 9.00.
`Cc1ccnc([C@H]2C[C@@H]2C(=O)Nc2cc(OCc3cn4cc(C5(F)CC5)cc(N5CC(=O)N(C)C5=O)c4n3)cnn2)n1` [Example 676, (1S,2S)—N-(5-((6-(1-fluorocyclopropyl)-8-(3-methyl-2,4-dioxoimidazolidin-1-yl)imidazo[1,2-a]pyridin-2-yl)methoxy)pyridazin-3-yl)-2-(4-methylpyrimidin-2-yl)cyclopropane-1-carboxamide]: the pEC50 is above 9.00.
Take `Cc1ccnc([C@H]2C[C@@H]2C(=O)Nc2cc(OCc3cn4cc(C5CC5)cc(N5CC(=O)N(C)C5=O)c4n3)c(CO)nn2)n1` [Example 677, (1S,2S)—N-(5-((6-cyclopropyl-8-(3-methyl-2,4-dioxoimidazolidin-1-yl)imidazo[1,2-a]pyridin-2-yl)methoxy)-6-(hydroxymethyl)pyridazin-3-yl)-2-(4-methylpyrimidin-2-yl)cyclopropane-1-carboxamide]: the pEC50 is above 9.00.
Next, `CC(=O)N1CCN(c2cc(C3CC3)cn3cc(CNc4cc(NC(=O)[C@H]5C[C@@H]5c5cccc(Cl)c5)ncn4)nc23)CC1` [Example I-1, (1S,2S)—N-(6-(((8-(4-acetylpiperazin-1-yl)-6-cyclopropylimidazo[1,2-a]pyridin-2-yl)methyl)amino)pyrimidin-4-yl)-2-(3-chlorophenyl)cyclopropane-1-carboxamide]: 8.00 to 9.00.
Turning to `COC(=O)C1CN(c2cc(C3CC3)cn3cc(CNc4cc(NC(=O)[C@H]5C[C@@H]5c5cccc(Cl)c5)ncn4)nc23)CCN1C` (stereo partly drawn) [Example I-8, methyl 4-(2-(((6-((15,2S)-2-(3-chlorophenyl)cyclopropane-1-carboxamido)pyrimidin-4-yl)amino)methyl)-6-cyclopropylimidazo[1,2-α]pyridin-8-yl)-1-methylpiperazine-2-carboxylate], the pEC50 is 8.00 to 9.00.
Turning to `O=C(Nc1cc(NCc2cn3cc(C4CC4)cc(N4CC5(C4)CN(C4CC4)C5)c3n2)ncn1)[C@H]1C[C@@H]1c1cccc(Cl)c1` [Example I-12, (1S,2S)-2-(3-chlorophenyl)-N-(6-(((6-cyclopropyl-8-(6-cyclopropyl-2,6-diazaspiro[3.3]heptan-2-yl)imidazo[1,2-a]pyridin-2-yl)methyl)amino)pyrimidin-4-yl)cyclopropane-1-scarboxamide], the pEC50 is 8.00 to 9.00.
In the case of `COc1ccc(CN2C(=O)CN(c3cc(C4CC4)cn4cc(CNc5ccnc(NC(=O)[C@H]6C[C@@H]6c6cccc(Cl)c6)c5)nc34)C2=O)cc1` [Example I-22, (1S,2S)-2-(3-chlorophenyl)-N-(4-(((6-cyclopropyl-8-(3-(4-methoxybenzyl)-2,4-dioxoimidazolidin-1-yl)imidazo[1,2-a]pyridin-2-yl)methyl)amino)pyridin-2-yl)cyclopropane-1-carboxamide], the pEC50 is 7.00 to 8.00.
